Results taken from PMC11242993, “Evaluation of the Therapeutic Potential of Sulfonyl Urea Derivatives as Soluble Epoxide Hydrolase (sEH) Inhibitors” (Molecules, 2024).

Columns and labels:
mouse recombinant sEH = target: T1, mouse recombinant sEH (Mus musculus, UniProt P34914); assay: Fluorescence-based sEH activity assay (PHOME substrate), mouse enzyme; format: biochemical; settings: dose-dependent assay; read-out: Mouse sEH Inhibition IC50
T1 sequence (P34914 1-554): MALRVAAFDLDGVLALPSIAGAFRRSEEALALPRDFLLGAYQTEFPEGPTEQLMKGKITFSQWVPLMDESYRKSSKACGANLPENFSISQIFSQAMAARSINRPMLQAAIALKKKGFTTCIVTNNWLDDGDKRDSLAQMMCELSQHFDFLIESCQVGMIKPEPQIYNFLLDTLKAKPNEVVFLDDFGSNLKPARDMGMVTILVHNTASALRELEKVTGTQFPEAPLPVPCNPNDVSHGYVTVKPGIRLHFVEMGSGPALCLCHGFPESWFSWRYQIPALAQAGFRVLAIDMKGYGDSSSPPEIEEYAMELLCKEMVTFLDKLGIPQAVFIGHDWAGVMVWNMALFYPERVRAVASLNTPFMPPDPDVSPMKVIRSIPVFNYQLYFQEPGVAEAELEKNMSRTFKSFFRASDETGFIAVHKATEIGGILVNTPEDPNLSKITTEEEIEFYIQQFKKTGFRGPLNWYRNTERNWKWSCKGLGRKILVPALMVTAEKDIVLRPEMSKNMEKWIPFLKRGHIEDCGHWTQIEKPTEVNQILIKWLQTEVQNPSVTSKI
Description: (§1) A fluorescence-based sEH activity assay provided a convenient method for screening human epoxide hydrolase inhibitors. The assay utilized (3-Phenyl-oxiranyl)-acetic acid cyano-(6-methoxy-naphthalen-2-yl)-methyl ester (PHOME) as a substrate. […] The inhibitory function of the compounds on sEH activity was tested as detailed in the product manual from Cayman Chemical. Briefly, 3 mL sEH assay buffer (10×) was diluted with 27 mL HPLC-grade water. This final assay buffer, 25 mM bis-tris (pH 7.0), was used in the assay and for the dilution of the soluble epoxide hydrolase (sEH) enzyme. Amounts of 12 μL each of human and mouse recombinant sEH were thawed on ice. Prior to assaying, 588 μL cold assay buffer was added directly to the enzyme vial. An amount of 190 μL assay buffer and 5 μL solvent (40% DMSO in assay buffer) were added to the background wells. In the 100% initial activity wells, 185 μL assay buffer, 5 μL sEH, and 5 μL solvent were added. In inhibitor wells, 185 μL assay buffer, 5 μL solution of the synthesized compounds, and 5 μL of recombinant enzyme solution were added. To start the reaction, 5 μL of PHOME was added to each well at a final concentration of 0.25 mM. The microwell plate was shaken carefully for 10 s and covered with a plate cover.
(§2) Average fluorescence (AF) of the background wells and 100% initial activity in the wells and of each of the inhibitors were determined. The background AF was subtracted from the 100% initial activity and inhibitor AFs. The % sEH activity is calculated as (inhbitited AF/% 100 initial activity) × 100.
(§3) Multiple concentrations of the inhibitors were tested followed by plotting of the percent activity as a function of inhibitor concentration to determine the IC50 values.

human recombinant sEH = target: T2, human recombinant sEH (Homo sapiens, UniProt P34913); assay: Fluorescence-based sEH activity assay (PHOME substrate), human enzyme; format: biochemical; settings: for IC50: dose-dependent assay, read-out: Human sEH Inhibition IC50
T2 construct: purchased Cayman Chemical 10011671
T2 sequence (P34913 1-555): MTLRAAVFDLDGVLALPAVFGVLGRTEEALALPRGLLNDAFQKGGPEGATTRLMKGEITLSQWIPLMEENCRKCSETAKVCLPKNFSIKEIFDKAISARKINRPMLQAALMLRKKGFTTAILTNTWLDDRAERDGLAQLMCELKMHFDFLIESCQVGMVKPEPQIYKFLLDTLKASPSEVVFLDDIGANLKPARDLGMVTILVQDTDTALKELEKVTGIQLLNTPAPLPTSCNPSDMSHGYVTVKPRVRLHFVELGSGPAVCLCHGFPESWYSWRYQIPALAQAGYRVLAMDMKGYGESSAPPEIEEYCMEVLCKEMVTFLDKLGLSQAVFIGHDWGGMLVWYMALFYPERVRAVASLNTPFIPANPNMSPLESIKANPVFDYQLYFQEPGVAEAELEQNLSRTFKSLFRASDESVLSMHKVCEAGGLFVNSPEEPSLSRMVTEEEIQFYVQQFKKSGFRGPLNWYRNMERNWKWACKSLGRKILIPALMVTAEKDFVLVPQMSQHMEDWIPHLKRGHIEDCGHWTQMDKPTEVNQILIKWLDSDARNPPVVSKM
Description: as §1, with “added.” for “added. To start the reaction, 5 μL of PHOME was added to each well at a final concentration of 0.25 mM. The microwell plate was shaken carefully for 10 s and covered with a plate cover.”
as §2, §3

C57BL/6J male mice = assay: Hot plate model; format: in vivo; settings: 10 mg/kg i.p.
Description: Thermal nociception in the hot plate test was assessed with a commercially available apparatus (Hotplate Analgesia Meter, Columbus Instruments) consisting of a metal plate to a constant temperature of 55.0 ± 0.1 °C. Mice were put into the hot plate testing instrument to adapt for at least 15 min. The device was connected to a manually operated timer that recorded the amount of time the mouse spent on the heated surface before showing signs of nociception (e.g., licked its paws or jumped), the cut-off time was 60 s. The baseline (basic pain threshold, the response was more than 25 s, and the jumping mice were excluded.) was calculated as the mean of three readings recorded before testing at intervals of 15 min. The time course of latency was then determined at 15, 30, 45, 60, 90, and 120 min after compound treatment. Data were analyzed as time-course curves of the percentage of maximum effect MPE% = (post drug latency − baseline latency) × 100/(cut-off time − baseline latency). C57BL/6J male mice obtained from The Jackson Laboratory (Bar Harbor, ME, USA) weighing 28 g were used for the hot plate test. Animal procedures were conducted following the rules and regulations of the Institutional Animal Care and Use Committee of the National Institute on Alcohol Abuse and Alcoholism (NIAAA) under the protocols of LPS-GK1.

mice = assay: LPS-induced acute lung injury (ALI) model; format: in vivo; settings: 10 mg/kg i.p.
Description: LPS-induced acute lung injury induced by a single oropharyngeal instillation of lipopolysaccharide (LPS) (50 µg/mouse) in 16-week-old mice as described previously. Briefly, LPS (L4391, MilliporeSigma, Burlington, MA, USA) was dissolved in sterile saline and administered at 50 µg/mouse in 40 µL after anesthesia induced by ketamine/xylazine. The mice were studied 24 h after LPS or saline instillation.
BALF was collected from anesthetized mice by lavaging lungs two times with 0.8 mL Hanks’ balanced salt solution without calcium and magnesium (HBSS) (Sigma-Aldrich, St. Louis, MI, USA). Supernatants were collected as BALF for further analyses.
The number of cells in the BALF was estimated using an automated cell counter, the Countess II FL cell counter (Thermo Fisher Scientific Inc., Waltham, MA, USA).
Albumin levels were measured by the Mouse Albumin Elisa Assay kit (Cat # E99-134), which was obtained from Bethyl Laboratories. BALF samples from the LPS group were diluted at a 1:2000 ratio.
Total protein in BALF samples was measured using the Pierce BCA protein assay kit (Cat # 23225) as detailed in the product manual (Thermo Fisher Scientific).
The right middle lobe was immediately placed in an RNA later solution and stored at −80 °C until the RNA extraction procedure. RNA extraction was performed using RNeasy Mini Kits from Qiagen (Valencia, CA, USA). One microgram of total RNA was reverse transcribed to cDNA using an iScript cDNA synthesis kit (Bio-Rad, Hercules, CA, USA). Expression of the target genes was quantified using gene-specific primers and PowerSYBRGreen master mix (Thermo Fisher Scientific) in a QuantStudio 3 Real-Time PCR instrument (Thermo Fisher Scientific). Predesigned mouse IL-6 (QT00098875), TNF-α (QT00104006), IL-1β (QT01048355), CXCL1 (QT00115647), CCL2 (QT00167832), CXCL3 (QT00151599) and CXCL9 (QT00097062) primers were purchased from Qiagen (Valencia, CA, USA). Fold changes in gene expression relative to the housekeeping gene TATA-Box Binding Protein (Tbp, QT00198443) were determined. Gene expression values were calculated based on the […] method.

[1] = In vivo pharmacokinetic experiment; set-up: species or system C57BL/6J mice; settings: male, C57BL/6J, mouse, serum, other: oral and intraperitoneal; mice, oral and intraperitoneal administration, 10 mg/kg; read-out: plasma half-life
Description: Twenty 8–9-week-old male C57BL/6J mice were taken for the in vivo pharmacokinetic experiment. They were divided into four groups, each containing five mice. Each group was used for either oral or intraperitoneal administration of compound 4f or 15a. Both the compounds were reconstituted in 5% DMSO, 5% TWEEN 80 in saline water (pH = 7.4). The mice were orally and intraperitoneally administered compounds at 10 mg/kg dose. Blood samples were collected at 0, 0.5, 1, 2, 4, 6, and 24 h after administration of the compound, and serum was isolated with the compound. For the pharmacokinetic study, 10 μL of serum samples from mice were extracted with a 2:1 mixture of LC/MS-grade chloroform and methanol, followed by intermittent vortexing, and then centrifuged at 4000 rpm for 10 min at 4 °C. Thereafter, the supernatant was collected and analyzed by LC−MS/MS to measure the concentrations of compounds 4f and 15a in the serum.

Row | SMILES | IC50 (mouse recombinant sEH) [nM] | Human sEH % Inhibition (human recombinant sEH) [%] | IC50 (human recombinant sEH) [nM] | analgesic effect in hot plate assay (C57BL/6J male mice) | effect on LPS-induced increase in total protein in BALF (mice) | number of cells in bronchoalveolar lavage (BAL) (mice) | LPS-induced lung gene expression of interleukin 1B (IL-1B) (mice; qPCR) | LPS-induced lung gene expression of interleukin 6 (IL-6) (mice; qPCR) | lung gene expression of CXCL1 (mice; qPCR) | half-life [1] [h]
1 | O=C(NC1CCN(C(=O)NC23CC4CC(CC(C4)C2)C3)CC1)NS(=O)(=O)c1ccc(OC(F)(F)F)cc1 [Compound 18, N-(1-((adamantan-1-yl)carbamoyl)piperidin-4-yl)-N′-((4-(trifluoromethoxy)phenyl)sulfonyl)carbamimidic acid] | 710 | 60.80 | 38.7 | – | – | – | – | – | – | –
2 | Cc1ccc(S(=O)(=O)NC(=O)NC23CC4CC(CC(C4)C2)C3)cc1 [Compound 4b, N-((adamantan-1-yl)carbamoyl)-4-methylbenzenesulfonamide] | 850 | 91.78 | 16.3 | – | – | – | – | – | – | –
3 | O=C(NC12CC3CC(CC(C3)C1)C2)NS(=O)(=O)c1ccccc1 [Compound 4a] | > 1000 | 93.61 | 100 | – | – | – | – | – | – | –
4 | CC12CC3CC(C)(C1)CC(NC(=O)NS(=O)(=O)c1ccc4ccccc4c1)(C3)C2 [Compound 15b, N-((3,5-dimethyladamantan-1-yl)carbamoyl)naphthalene-2-sulfonamide] | > 1000 | 47.05 | 950 | – | – | – | – | – | – | –
5 | O=C(O)CCCCCCCCCCCNC(=O)NC12CC3CC(CC(C3)C1)C2 [AUDA, 12-(3-adamantan-1-ylureido)dodecanoic acid, reference compound] | – | – | – | none of the sEH inhibitors, including AUDA, showed any analgesic effect | neither AUDA nor novel sEH inhibitors’ (4f and 4l) effect | similarly attenuated the number of cells in BAL | attenuated | attenuated | similarly attenuated | –
6 | O=S(=O)(NC(=S)NC12CC3CC(CC(C3)C1)C2)c1ccc(OC(F)(F)F)cc1 [Compound 6d, N-((adamantan-1-yl)carbamothioyl)-4-(trifluoromethoxy)benzenesulfonamide] | 110 | 96.24 | 4.66 | – | – | – | – | – | – | –
7 | CC12CC3CC(C)(C1)CC(NC(=O)NS(=O)(=O)c1ccc(OC(F)(F)F)cc1)(C3)C2 [Compound 15a, N-((3,5-dimethyladamantan-1-yl)carbamoyl)-4-(trifluoromethoxy)benzenesulfonamide] | 22 | 92.06 | 3.87 | – | – | – | – | – | – | < 2
